pKi: −log10 of the molar value.
What was measured:
[1] = biological target: T1, human 5HT1A-serotonergic receptor (Homo sapiens, UniProt P08908); assay: Radioligand binding to recombinant 5-HT1A receptors; conditions: [3H]8-OH-DPAT 1 nM, membranes of HeLa cells with human 5-HT1A receptor; Ki from IC50 by Cheng & Prusoff; read-out: Binding affinity for 5HT1A receptors, Ki
T1 construct: expressed in transfected cells; host or cells: HeLa (human cell line), stably transfected; cell membranes used
T1 sequence (P08908 1-422): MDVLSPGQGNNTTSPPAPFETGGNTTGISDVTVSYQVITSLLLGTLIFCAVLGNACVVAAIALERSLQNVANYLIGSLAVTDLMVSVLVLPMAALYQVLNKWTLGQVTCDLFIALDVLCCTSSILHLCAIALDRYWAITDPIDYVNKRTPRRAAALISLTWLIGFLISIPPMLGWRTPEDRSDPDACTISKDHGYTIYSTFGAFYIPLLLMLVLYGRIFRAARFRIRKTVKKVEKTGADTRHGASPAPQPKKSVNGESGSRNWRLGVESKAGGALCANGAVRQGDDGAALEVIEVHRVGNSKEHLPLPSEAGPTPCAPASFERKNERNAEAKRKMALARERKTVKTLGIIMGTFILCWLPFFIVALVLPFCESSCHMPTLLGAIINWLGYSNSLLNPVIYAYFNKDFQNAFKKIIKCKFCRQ
How it was run: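 Displacement of 1 nM [3H]8-OH-DPAT (30 min, 30 °C, Tris-HCl pH 7.4 with MgCl2 and pargyline) from recombinant human 5-HT1A in transfected HeLa membranes, stopped by filtration. Specific binding defined against 10 μM 5-HT; IC50 by nonlinear fitting, then Ki by Cheng–Prusoff.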

5-HT1A receptors = biological target: T2, 5-HT1A receptors (Rattus norvegicus, UniProt P19327); assay: Inhibition of stereotypy (rhythmic forepaw treading) induced by 8-OH-DPAT in rats (post-synaptic antagonism); type: in vivo; conditions: for inhibition at 10 mg/kg / inhibition at 1 mg/kg: rat; for inhibition at 10 mg/kg: 10 mg/kg p.o.; for post-synaptic 5-HT1A-receptor antagonist activity (in words) / inhibition at 1 mg/kg: 1 mg/kg p.o.; for post-synaptic 5-HT1A-receptor antagonist activity (in words): rats
T2 construct: from tissue; host or cells: whole animal: male Sprague-Dawley rats (post-synaptic 5-HT1A receptors)
T2 sequence (P19327 1-422): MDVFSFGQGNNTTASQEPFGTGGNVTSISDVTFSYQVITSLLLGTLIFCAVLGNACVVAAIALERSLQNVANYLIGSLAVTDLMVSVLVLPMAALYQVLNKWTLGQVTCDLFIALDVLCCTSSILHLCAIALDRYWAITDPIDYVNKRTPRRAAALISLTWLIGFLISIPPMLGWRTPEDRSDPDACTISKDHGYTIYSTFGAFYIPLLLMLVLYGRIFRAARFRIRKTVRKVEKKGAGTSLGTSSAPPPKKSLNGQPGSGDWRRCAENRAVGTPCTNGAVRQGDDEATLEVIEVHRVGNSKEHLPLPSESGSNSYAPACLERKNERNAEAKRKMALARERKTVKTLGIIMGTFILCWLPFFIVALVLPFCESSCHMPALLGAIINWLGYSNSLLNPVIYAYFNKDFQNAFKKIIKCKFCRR
Description: The inhibitory effect of 5-HT1A-receptor antagonists on stereotyped forepaw treading induced in rats by subcutaneous injection of 8-OH-DPAT was evaluated by the method of Tricklebank (Tricklebanket al., Eur. J. Pharmacol., 117: 15, 1985) with minor modifications as described below.
Male Sprague-Dawley rats [Crl: CD° (SD) BR] weighing 150-175 g from Charles River Italia were used. The animals were housed with free access to food and water and maintained on a forced 12-hour-light/12-hour-dark cycle at 22-24° C. of temperature. On the day of the experiment, the rats were placed singly in clear plastic containers, 10-15 minutes before administration of the vehicle or compounds to be tested. For evaluation of antagonistic activity after oral administration, the compounds were administered 0.5, 1 and 4 hours before induction of stereotypy by 8-OH-DPAT (1 mg/kg subcutaneously). Observation sessions lasted 30 seconds and began 3 minutes after 8-OH-DPAT treatment and were repeated every 3 minutes over a period of 15 minutes.
The appearance of the symptom induced by postsynaptic stimulation of 5-HT1A receptors was noted, and the intensity was scored using an intensity scale in which: 0=absent, 1=equivocal, 2=present and 3=intense. Behavioural scores for treated rats were accumulated throughout the observation time (5 observation periods) and expressed as mean values of 4 rats/dose. Change in mean values of treated animals in comparison with control (vehicle) group, expressed as per-cent inhibition, was used in order to quantify the antagonistic activity.

anaesthetised rats = assay: Effects on rhythmic bladder-voiding contractions induced by bladder filling in anaesthetised rats; type: in vivo, rat; conditions: intravenous administration, urethane-anaesthetised rats; for ED50: Rattus norvegicus, read-out: ED50 frequency (extrapolated dose inducing a reduction of the number of contractions >30% in 50% of treated rats)
Description: Female Sprague-Dawley rats weighing 225-275 g (Crl: CDo Br, Charles River Italia) were used. The animals were housed with free access to food and water and maintained on a forced 12-hour alternating light-dark cycle at 22-24° C. for at least one week, except during the experiment. The activity on rhythmic bladder voiding contractions was evaluated according to the method of Dray (Dray J., Pharmacol. Methods, 13:157, 1985), with some modifications as in Guarneri (Guarneri, Pharmacol. Res. 27:173, 1993). Briefly, the rats were anaesthetised by subcutaneous injection of 1.25 g/kg (5 ml/kg) urethane, after which the urinary bladder was catheterised via the urethra using PE 50 polyethylene tubing filled with physiological saline. The catheter was tied in place with a ligature around the external urethral orifice and was connected to conventional pressure transducers (Statham P23 ID/P23 XL). […] The bladder was then filled via the recording catheter by incremental volumes of warm (37° C.) saline until reflex bladder-voiding contractions occurred (usually 0.8-1.5 ml). For intravenous injection of bioactive compounds, PE 50 polyethylene tubing filled with physiological saline was inserted into the jugular vein.
From the cystometrogram, the number of contractions recorded 15 minutes before (basal values) and after treatment, as well as the mean amplitude of these contractions (mean height of the peaks in mmHg), was evaluated.
Since most compounds produced an effect that was relatively rapid in onset and led to a complete cessation of bladder contractions, bioactivity was conveniently estimated by measuring the duration of bladder quiescence (i.e. the length of the time during which no contractions occurred). The number of tested animals showing a reduction in the number of contractions higher than 30% of that observed in the basal period was recorded too.
The extrapolated doses which induced a reduction in the number of contractions greater than 30% in 50% of the treated rats (ED50) were evaluated by the method of Bliss (Bliss C. I., Quart J. Pharm. Pharmacol. 11, 192-216, 1938).

[2] = 0.5 h before 8-OH-DPAT (1 mg/kg s.c.)
[3] = 1 h before 8-OH-DPAT (1 mg/kg s.c.)
[4] = 4 h before 8-OH-DPAT (1 mg/kg s.c.)

Compound | pKi [1] | inhibition at 10 mg/kg (5-HT1A receptors; [3]) | inhibition at 10 mg/kg (5-HT1A receptors; [4]) | ED50 (anaesthetised rats) | ED10 min (extrapolated dose inducing 10 minutes of disappearance of the contractions) (anaesthetised rats) | other results
O=C(C1CC=CCC1)N1c2ccccc2CCC1CN1CCN(c2cccc3[nH]ccc23)CC1 (centres unmarked) [Example 24A1, 1-(1-Cyclohex-3-enylcarbonyl-1,2,3,4-tetrahydroquinoline-2-ylmethyl)-4-(4-indolyl)piperazine] | 8.59 | 100% | 100% | – | – | inhibition at 10 mg/kg (5-HT1A receptors; [2]): 100%
O=C(C1CCCCC1)N1c2ccc(F)cc2CCC1CN1CCN(c2cccc3[nH]ccc23)CC1 (centres unmarked) [Example 18, 1-(1-Cyclohexanecarbonyl-6-fluoro-1,2,3,4-tetrahydroquinoline-2-ylmethyl)-4-(4-indolyl)piperazine] | 8.55 | 92% | 92% | – | – | inhibition at 10 mg/kg (5-HT1A receptors; [2]): 98%
COc1ccccc1N1CCN(CC2CCc3ccccc3N2C(=O)C2CCCCC2)CC1 (centres unmarked) [Example 2, 1-(1-Cyclohexanecarbonyl-1,2,3,4-tetrahydroquinoline-2-ylmethyl)-4-(2-methoxyphenyl)piperazine] | 9.52 | – | – | 0.172 mg/kg | 0.383 mg/kg | –
O=C(C1CCCCC1)N1c2ccccc2CCC1CN1CCN(c2cccc3[nH]ccc23)CC1 (single isomer, unassigned; (-)) [(−)-1, (−)-1-(1-Cyclohexanecarbonyl-1,2,3,4-tetrahydroquinoline-2-ylmethyl)-4-(4-indolyl)piperazine] | – | – | – | – | – | post-synaptic 5-HT1A-receptor antagonist activity (in words) (5-HT1A receptors): devoid of activity; inhibition at 1 mg/kg (5-HT1A receptors; [2]): 19%; inhibition at 1 mg/kg (5-HT1A receptors; [3]): 5%; inhibition at 1 mg/kg (5-HT1A receptors; [4]): 9%
O=C(C1CCCCC1)N1c2ccccc2CCC1CN1CCN(c2cccc3[nH]ccc23)CC1 (single isomer, unassigned; (+)) [Example (+)-1, (+)-1-(1-Cyclohexanecarbonyl-1,2,3,4-tetrahydroquinoline-2-ylmethyl)-4-(4-indolyl)piperazine] | 9.70 | – | – | 0.024 mg/kg | 0.072 mg/kg | post-synaptic 5-HT1A-receptor antagonist activity (in words) (5-HT1A receptors): significant and complete inhibition of the symptom up to 4 hours after administration; inhibition at 1 mg/kg (5-HT1A receptors; [2]): 100%; inhibition at 1 mg/kg (5-HT1A receptors; [3]): 100%; inhibition at 1 mg/kg (5-HT1A receptors; [4]): 98%
COc1ccccc1N1CCN(CCC2CCc3ccccc3N2C(=O)C2CCCCC2)CC1 (centres unmarked) [Example 3, 1-[2-(1-Cyclohexanecarbonyl-1,2,3,4-tetrahydroquinoline-2-yl)ethyl]-4-(2-methoxyphenyl)piperazine] | 8.08 | – | – | 0.02 mg/kg | 0.08 mg/kg | –
O=C(C1CCCC1)N1c2ccccc2CCC1CN1CCN(c2cccc3[nH]ccc23)CC1 (centres unmarked) [Example 24A3, 1-(1-Cyclopentanecarbonyl-1,2,3,4-tetrahydroquinoline-2-ylmethyl)-4-(4-indolyl)piperazine] | 8.27 | 93% | 100% | – | – | inhibition at 10 mg/kg (5-HT1A receptors; [2]): 100%
Cc1c(-c2ccccc2)oc2c(C(=O)OCCN3CCCCC3)cccc2c1=O [Flavoxate, flavoxate, reference compound] | – | – | – | 2.65 mg/kg | >10 mg/kg | –
Cc1[nH]c2cccc(N3CCN(CC4CCc5ccccc5N4C(=O)C4CCCCC4)CC3)c2c1C (centres unmarked) [Example 35A13, 1-(1-Cyclohexanecarbonyl-1,2,3,4-tetrahydroquinoline-2-ylmethyl)-4-(2,3-dimethyl-4-indolyl)piperazine] | 8.40 | 95% | 100% | – | – | –
COc1cccc(N2CCN(CC3CCc4ccccc4N3C(=O)C3CCCCC3)CC2)n1 (centres unmarked) [Example 35A35, 1-(1-Cyclohexanecarbonyl-1,2,3,4-tetrahydroquinoline-2-ylmethyl)-4-(6-methoxy-2-pyridinyl)piperazine] | 8.21 | – | – | – | – | –
O=C(c1ccc[nH]1)N1c2ccccc2CCC1CN1CCN(c2nccc3ccccc23)CC1 (centres unmarked) [Example 75A3, 1-(1-Isoquinolinyl)-4-[1-(2-pyrrolylcarbonyl)-1,2,3,4-tetrahydroquinolin-2-ylmethyl]piperazine] | 7.85 | – | – | – | – | –
COc1ccc(C(=O)N2c3ccccc3CCC2CN2CCN(c3ccc(F)cc3OC)CC2)cc1 (centres unmarked) [Example 74A5, 1-(4-Fluoro-2-methoxyphenyl)-4-[1-(4-methoxybenzoyl)-1,2,3,4-tetrahydroquinolin-2-ylmethy]piperazine] | 8.70 | – | – | – | – | –
O=C(C1CCCCC1)N1c2ccccc2CCC1CN1CCN(c2cc(C(F)(F)F)nc3ccccc23)CC1 (centres unmarked) [Example 72A89, 1-(1-Cyclohexanecarbonyl-1,2,3,4-tetrahydroquinolin-2-ylmethyl)-4-(2-trifluoromethylquinolin-4-yl)piperazine] | 7.46 | – | – | – | – | –

From patent US20030162777A1, “Novel N-acylated heterocycles” (Recordati S.A., priority 2001, published 2003)
